From a melting point compilation (Tetko et al.; mined from patent text by program, amines drawn as free bases though some values may be those of a salt)

Row | Structure (SMILES) | melting point [°C]
1 | Cc1ccnc(C(=O)c2[nH]c3ccc(Cl)cc3c2CC(=O)NCCO)c1 | 196
2 | Oc1ccc(-c2nc3cc(O)cc(Br)c3o2)c(F)c1 | 248 to 250
3 | Cc1cc(C(C)(C)C)c(O)c(C)c1CC(=O)N1CCN(C(=O)Cc2c(C)cc(C(C)(C)C)c(O)c2C)CC1 | 305 to 310
4 | N#Cc1ccc(Nc2nc(Oc3c(Br)cc(CO)cc3Br)ccc2[N+](=O)[O-])cc1 | 209 to 213
5 | CSc1ccc(-n2c(-c3ccc(C)cc3)nc(SC)c(C#N)c2=O)cc1 | 230 to 233
6 | CN(c1ccc(Cl)cc1)C1CCN(C2CCN(c3ccc(OC[C@@]4(C)Cn5cc([N+](=O)[O-])nc5O4)cc3)CC2)CC1 | 231 to 232
7 | O=C(O)COc1cc(Cl)ccc1C(=O)NCc1cccc(F)c1 | 155
8 | O=C(O)C=Cc1cc([N+](=O)[O-])ccc1Br | 185
9 | CC(Oc1ccc(Br)cc1)c1ccnc2ncnn12 (stereo not drawn) | 121 to 124
10 | O=[N+]([O-])c1cccc(Nc2nccc(-c3cccnc3)n2)c1 | 212 to 213
11 | CNC(=O)C1=CC(CF)(CF)Oc2ccc([N+](=O)[O-])cc21 | 178 to 179
12 | O=C1c2c([N+](=O)[O-])cccc2S(=O)(=O)N1CCO | 140 to 141
13 | N#CCCNC(=O)c1cccc(-c2cccc3nn(Cc4ccccc4F)cc23)c1 | 165 to 166
14 | O=Cc1cccc2nnsc12 | 134 to 136
15 | COc1cc(Nc2c(C#N)cnc3cc(-c4ccccc4CN4CCOCC4)ccc23)c(Cl)cc1Cl | 107 to 109
16 | c1ccc(-c2ccc3cnc(NCc4cccnc4)nn23)cc1 | 201 to 203
17 | c1ccc(CN2CC3(COc4cc5c(cc43)CCO5)c3c(-c4cncnc4)cccc32)nc1 (stereo not drawn) | > 200
18 | COc1cc(-c2nc3ccccc3n2Cc2ccc(Cl)cc2)cc(OC)c1OC | 169
19 | COc1ccc2ccccc2c1-c1c(C)c2c(c(C)c1P(=O)(c1ccccc1)c1ccccc1)COC2 | 105 to 107
20 | CCn1cc(C(=O)O)c(=O)c2cc(F)c(N3CCOC(CCl)C3)c(F)c21 (stereo not drawn) | 212 to 215
21 | CCOC(=O)Cc1c(-c2ccccc2)c2cc(CO)c(CO)cc2oc1=O | 130 to 131
22 | N#CC(=NNc1c(Cl)cc(C(F)(F)F)cc1Cl)c1ccc(C#N)cc1 | 186 to 187

Row | Structure (SMILES) | melting point [°C]
23 | Cc1cc(C)c(C(=O)P(=O)(c2ccccc2)c2ccccc2)c(C)c1Cl | 125 to 126
24 | COc1cccc(-c2cc3[nH]nc(I)c3s2)c1 | 159 to 163
25 | CCCCCCCCCCc1ccc(CNc2ccc(C(=O)O)cc2)cc1 | 135 to 136
26 | CCn1c(=O)c2c(nc(/C=C/c3cc(OC)c4c(c3)OCO4)n2C)n(CC)c1=O | 202
27 | CCn1c(=O)c2c(nc(/C=C/c3ccccc3OC)n2C)n(CC)c1=O | 190
28 | O=C(O)c1ccc(Cn2cc(C3c4ccc(C(F)(F)F)cc4C=Cc4cc(C(F)(F)F)ccc43)c(=O)[nH]c2=O)o1 | 203 to 206
29 | N#Cc1cc(F)c(NC(=O)C(F)(F)F)c(F)c1 | 134 to 135
30 | CCCCCCCCCCCCS(=O)(=O)N1CCCSC1=C[N+](=O)[O-] | 116 to 117
31 | OCc1cn(-c2cccc(SC(F)(F)F)c2)cn1 | 73 to 75
32 | CCn1cc2c(n1)c(=O)[nH]c1ccccc12 | > 250
33 | Cc1cc([N+](=O)[O-])c(O)c([N+](=O)[O-])c1C | 120 to 122
34 | Cc1c(C(=O)N[C@H](C)[C@](O)(Cn2cncn2)c2ccc(F)cc2F)cnn1-c1ccc(F)cc1F | 208 to 209
35 | CC1CC(=O)N(c2ccccc2)c2cc(Cl)ccc2N1C (stereo not drawn) | 113 to 114
36 | Cc1cc(-c2cc(O)c(Cl)cc2F)c(=O)n(C)c1C(F)(F)F | 207 to 208
37 | COc1cc(C)ccc1-c1nc(C)c(-c2cccnc2)n1O | 75 to 80
38 | Cc1cc2c(cc1O)C(C)(C)CCC2(C)C | 122 to 123
39 | CCOC(=O)/C=C/c1ccc(OCCOC)cc1OCc1nc(-c2ccccc2)oc1C | 109 to 110
40 | COc1ccc2c(c1)CC(C)C2=O (stereo not drawn) | 73 to 76
41 | CCOC(=O)c1nc(-c2ccncc2)[nH]c1-c1ccc(C)cc1 | 182 to 185
42 | COc1ccc(OC)c(CCC(C)(O)CC2CCCCN2)c1 (stereo not drawn) | 85 to 90
43 | Fc1cccc(F)c1-c1ncc(Oc2cccc(Cl)c2)nn1 | 132 to 137
44 | COCc1[nH]c(=O)c(C#N)c2c1CC(C)CC2 (stereo not drawn) | 205 to 208

Row | Structure (SMILES) | melting point [°C]
45 | Cc1ccc(Cc2cnc(NCCSCc3cccc(CN(C)C)c3)[nH]c2=O)cn1 | 122 to 125
46 | Fc1cc2c(Nc3ccc(Cl)c(Br)c3)ncnc2cn1 | 271 to 275
47 | Cc1cncc(C(=O)Nc2cc(-c3c(-c4ccc(F)c(C)c4)nc4cccnn34)ccn2)c1 | 238 to 240
48 | CC(=O)OC1CCC2C3CCC4=C([N+](=O)[O-])C(=O)CCC4(C)C3CCC12C (stereo not drawn) | 216 to 217
49 | CCCc1nnc(-c2ccc(N(C)C)cc2)n1-c1ccc(OC)cc1 | 160
50 | COc1cc(Cl)cc(COc2cccc(OCc3ccc4ccccc4n3)c2)c1OCC(=O)O | 185 to 190
51 | COC(=O)CC1=C(C)C(O)c2ccc(C#N)cc21 (stereo not drawn) | 70 to 75
52 | CCOC(=O)Nc1c(C(=O)c2cccc(Cl)c2)[nH]c2cc(Cl)ccc12 | 188 to 189
53 | Cc1ccc(C(C#N)=NOS(C)(=O)=O)cc1C | 91 to 95
54 | C=CCc1cc(C(=O)OC)ccc1-c1ccc(OC)c(OC)c1 | 99 to 103
55 | CCc1nc2c(Cl)ncnc2n1C(C1CC1)C1CC1 | 99 to 100
56 | O=C1C=C(NC(=O)C(=O)c2cn(Cc3ccc([N+](=O)[O-])cc3)c3ccccc23)CO1 | 275 to 277
57 | COc1cc(OC)n2nc(S(=O)(=O)Nc3c(Cl)cccc3Cl)nc2c1 | 252 to 253
58 | CCCSC1=Nc2ccccc2SN1 | 168 to 170
59 | CCOC1Cc2cc3ccc(=O)oc3c(OC)c2O1 (stereo not drawn) | 119 to 120
60 | COc1ccc(-c2[nH]nc3c2C(=O)c2c(NC(=O)NNC(=O)c4ccc(O)c(O)c4)cccc2-3)cc1 | > 300
61 | CCCCCCCCCCCCCCCCCCNC(=O)OC[C@@H]1OCCC[C@H]1O (relative stereo) | 55 to 56
62 | Cn1cnc(COc2nn3c(-c4ccccc4F)nnc3cc2C23CCC(C2)C3)n1 | 170 to 172
63 | CN1CC=C(c2c[nH]c3ccc(NC(=O)c4ccc(F)cc4Cl)cc23)CC1 | 212 to 222
64 | COC(=O)ON=C(N)c1ccc(C(=O)OC(C)(C)C)cc1 | 157 to 159

Second part, the compound after the results:

Row | melting point [°C] | Structure (SMILES)
65 | 182 to 184 | CSc1ccc(C(=O)c2c(C)cc3n2CCC3C(=O)O)n1C (stereo not drawn)
66 | 127 to 129 | O=C(O)Cc1cccc(OCc2ccccc2)c1
67 | 146 to 148 | COc1cc(N)c(Cl)cc1C(=O)NCC1CCN(CCCSc2ccccc2)CC1
68 | 122 to 124 | Nc1c(C(=O)c2ccccc2)oc2ccccc12
69 | 133 to 136 | O=C(O)[C@@H]1C[C@H](O)CN1C(=O)c1ccccc1
70 | 174 to 175 | COc1cc(NC(=O)NS(=O)(=O)c2ccccc2C)nc(OC)n1
71 | 234 to 236 | O=C(NCc1cccnc1)c1ccc2n1Cc1ccccc1N(C(=O)c1ccc(-c3ncccn3)cc1)C2
72 | 184 to 186 | C=C(C)C(=O)Oc1ccc2c(c1)C(=O)c1ccccc1C2=O
73 | 152 to 153 | CC(C)Cc1cc(OCc2ccccc2)c2c(c1)OC(C)(C)CC2C(=O)O (stereo not drawn)
74 | 139 to 142 | O=C(Cl)c1sc2ccc(OCc3ccccc3)cc2c1Cl
75 | 173 to 175 | Cc1cccc(N2CC(=O)N(C)C(=O)N2)c1
76 | 87 to 100 | CC(=O)Nc1ccc(C[C@H](NC(=O)N(CCOC(C)=O)CCc2ccccc2)C(=O)NCCN(C)C)cc1
77 | 61 to 62 | COC(=O)C(=O)c1ccc(OCCCOc2ccccc2)cc1
78 | 193 to 194 | CC(=O)NCCCNc1ccc(NCCN(C)C)c2c1C(=O)c1ccccc1C2=O
79 | 145 to 148 | Cn1c(-c2ccccc2)cc2onc(-c3ccccc3)c2c1=O
80 | 89 to 90 | COc1ccc(S(=O)(=O)NC(CCF)C(=O)OC(C)(C)C)cc1 (stereo not drawn)
81 | 207 | O=Cc1ccc(OCc2ccccc2)c2[nH]c(C(=O)O)cc12

Row | melting point [°C] | Structure (SMILES)
82 | 212 to 214 | CC(C)(C)OC(=O)Nc1ccc(C(=O)N2CCC(c3[nH]nc4c3C(=O)c3c(NC(=O)NN5CCOCC5)cccc3-4)CC2)cc1
83 | 238 to 240 | CS(=O)(=O)N1CC=C(c2ccc3cnc(Nc4ccc(N5CCOCC5)cc4)nn23)CC1
84 | 270 to 272 | CCn1cc(C(=O)O)c(=O)c2cc(F)c(N3CC4CCC3CN4)cc21 (stereo not drawn)
85 | 205 | CC(=O)NCC1=C(N2CCCC2=O)c2cc([N+](=O)[O-])ccc2OC1(C)C
86 | 223 to 224 | CCOc1cccc2cc(C(=O)NNS(=O)(=O)c3ccccc3)oc12
87 | 161 to 162 | CN(c1cccc2cc(C3=NCC(CN4CCS(=O)CC4)S3)[nH]c12)S(=O)(=O)c1nccn1C (stereo not drawn)
88 | 189 to 193 | O=C(c1ccc(Nc2ccccc2[N+](=O)[O-])cc1)c1ccccc1O
89 | 248 to 249 | C/C(=N\O)c1cccc(Nc2c3ccccc3nc3occc23)c1
90 | 216 to 218 | O=C(Nc1ccc(Cc2ccc(O)c(O)c2)cc1)C1CSc2ccccc2C1=O (stereo not drawn)
91 | > 315 | CCOC(=O)Nc1nc2cc(C(O)c3ccccc3)ccc2[nH]1 (stereo not drawn)
92 | 186 to 192 | Cc1cc(C)nc(NC(=O)NS(=O)(=O)c2ccccc2S(=O)(=O)N(C)OCc2ccccc2)n1
93 | 159 to 162 | O=[N+]([O-])c1ccc(C(O)C(COc2ccccc2)N2CCC(Cc3ccccc3)CC2)cc1 (stereo not drawn)
94 | 167 to 168 | COC(=O)c1ccccc1CS(=O)(=O)NC(=S)Nc1nc(OC)cc(OC)n1
95 | 250 | COC(=O)CCc1ccc(N2C(=O)CN(c3ccc(C(=N)NC(=O)OC)cc3)C2=O)cc1
96 | 120 to 122 | CC(C)NC(=O)N1CCc2cc(S(=O)(=O)N3CC(c4ccccc4)NC3=O)ccc21 (stereo not drawn)
97 | 187 to 188 | O=C(Nc1c(C(O)(C(F)(F)F)C(F)(F)F)ccc2ccccc12)c1cccc(C(F)(F)F)c1
98 | 131 to 133 | COc1cccc2c(CN3CC=C(CCc4ccccc4)CC3)c[nH]c12
